{
  "source": "ChEMBL document CHEMBL4118041",
  "about": "“Targeted Dereplication of Microbial Natural Products by High-Resolution MS and Predicted LC Retention Time” (2017)",
  "tested_on": "A2058",
  "test": "Cytotoxicity against human A2058 cells assessed as survival at 250 uM relative to control",
  "type": "functional",
  "settings": "read-out: Survival",
  "data": [
    {"compound": "CC1=C(NC(=O)CC(C)C)C(=O)N(CCCC(=O)O)C1=O", "values": [
      {"measurement": "viability at 250 µM", "value": 100, "unit": "%"}
    ]}
  ]
}
